Assay results as given in publication PMC12385147, “Discovery of Novel 2-Substituted Aniline Pyrimidine Based Derivatives as Potent Mer/c-Met Dual Inhibitors with Improvement Bioavailability” (Biomolecules, 2025).
Where two headings read alike, the source gives them in different places.

Assays:
Mer kinase = biological target: T1, Mer kinase (Homo sapiens, UniProt Q12866); test: Mer kinase inhibition assay (TK-Sub-Biotin / cryptate detection); type: biochemical; conditions: means from three independent experiments
T1 construct: purchased Invitrogen (Shanghai, China)
T1 sequence (Q12866 21-999): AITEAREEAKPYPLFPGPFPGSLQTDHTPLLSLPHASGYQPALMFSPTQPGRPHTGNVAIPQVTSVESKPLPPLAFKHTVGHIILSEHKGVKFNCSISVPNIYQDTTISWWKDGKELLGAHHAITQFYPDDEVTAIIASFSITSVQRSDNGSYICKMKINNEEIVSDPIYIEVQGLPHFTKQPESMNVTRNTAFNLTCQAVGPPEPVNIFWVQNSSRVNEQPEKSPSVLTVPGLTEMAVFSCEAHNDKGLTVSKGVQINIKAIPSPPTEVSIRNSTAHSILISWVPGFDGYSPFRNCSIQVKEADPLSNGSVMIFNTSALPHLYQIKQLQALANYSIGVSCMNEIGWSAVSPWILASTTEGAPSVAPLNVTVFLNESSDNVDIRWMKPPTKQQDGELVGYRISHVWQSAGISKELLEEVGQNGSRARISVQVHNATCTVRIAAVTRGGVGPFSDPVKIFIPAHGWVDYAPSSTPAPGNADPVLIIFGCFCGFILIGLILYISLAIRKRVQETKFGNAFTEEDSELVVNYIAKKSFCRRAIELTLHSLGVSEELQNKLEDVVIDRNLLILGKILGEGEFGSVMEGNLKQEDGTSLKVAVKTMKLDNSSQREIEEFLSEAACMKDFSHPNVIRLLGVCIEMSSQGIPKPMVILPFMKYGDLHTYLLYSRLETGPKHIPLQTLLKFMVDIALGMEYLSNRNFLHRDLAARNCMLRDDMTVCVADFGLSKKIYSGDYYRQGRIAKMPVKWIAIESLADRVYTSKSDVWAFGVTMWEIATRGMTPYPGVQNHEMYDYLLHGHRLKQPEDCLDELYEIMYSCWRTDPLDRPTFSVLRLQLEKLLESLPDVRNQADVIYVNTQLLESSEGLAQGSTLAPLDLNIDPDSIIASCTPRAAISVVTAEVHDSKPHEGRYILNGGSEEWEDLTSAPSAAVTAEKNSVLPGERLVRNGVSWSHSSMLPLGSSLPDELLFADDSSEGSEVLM

c-Met kinase = biological target: T2, c-Met kinase (Homo sapiens, UniProt P08581); test: c-Met kinase inhibition assay (TK-Sub-Biotin / cryptate detection); type: biochemical; conditions: means from three independent experiments
T2 construct: purchased Invitrogen (Shanghai, China)

[1] = Liver microsome stability assay; type: in vitro ADME, human
CAKI-1 renal cancer = test: Antiproliferation CCK-8 assay, CAKI-1; type: cell-based
PC-3 prostate cancer = test: Antiproliferation CCK-8 assay, PC-3; type: cell-based
[2] = Plasma protein binding, equilibrium dialysis, human plasma; type: in vitro ADME; conditions: for fraction unbound at 6 h, 1 μM: human, plasma
[3] = Plasma protein binding, equilibrium dialysis, rat plasma; type: in vitro ADME
[4] = Pharmacokinetics in SD rats; type: in vivo; conditions: rat; for MRT inf: read-out: MRTINF_obs
Description: Male and female SD rats (SLRC Laboratory Animal Inc., Shanghai, China) were used for the study. In the oral (PO) administration, 3 rats per group were given a single 10 mg/kg dose. Blood samples (100 μL per time point) were collected via jugular vein cannula and taken at 5, 15, and 30 min, and 1, 2, 4, 8, and 24 h post-dose. For the intravenous (IV) administration, 3 rats per group received 2.0 mg/kg, and blood samples were collected at 5, 15, and 30 min, and 1, 2, and 4 h after dosing. Rats were fasted overnight prior to dosing and remained fasted for 6 h post-dose. Plasma was separated by centrifugation and stored at –40 °C until analysis. Compound concentrations were determined by LC/MS/MS (Shimadzu LC-30AD), and pharmacokinetic parameters, including Cmax, Tmax, T1/2, and AUC0-inf, were calculated.

HCT116 cells = test: TUNEL apoptosis assay in HCT116 cells; type: cell-based; conditions: 48 h
Description: Apoptosis was analyzed in a dose-dependent manner using the One Step TUNEL Apoptosis Assay Kit (Meilunbio, Dalian, China). HCT116 cells (1.5 × 10^4 cells/well) were seeded onto TC-treated glass coverslips in 24-well plates and incubated for 24 h. Following this, the cells were exposed to varying concentrations of compound 17c for 48 h. After treatment, the cells were fixed with 4% paraformaldehyde and permeabilized with 0.3% Triton-X-100. TUNEL staining was performed as per the manufacturer’s guidelines, with DAPI used for nuclear counterstaining. Fluorescent images were obtained using an Olympus microscope. The ED50 value for compound 17c was calculated using GraphPad PRISM 9.5. Each assay was performed in triplicate and repeated three times for consistency.

[5] = test system: c-Met kinase phosphorylation; test: Western blot, c-Met phosphorylation in HCT116 cells; type: cell-based, human; conditions: 2.5 μM, 24 h, compared to the positive control
Description: Western blot assay was performed according to established protocols. HCT colon cancer cells were exposed to the specified concentration of compound 17c for 24 h, after which whole cell lysates were prepared using RAPI cell lysis buffer (Beyotime Institute of Biotechnology, Shanghai, China). Primary antibodies, purchased from Beyotime Institute of Biotechnology, were diluted at a ratio of 1:2000. The protein bands on polyvinylidene fluoride membranes were visualized and analyzed using Glyco Band-Scan Software Version 4.50. The antibody details are as follows:
Name: Phospho-c-Met (Tyr1234) antibody, Species: Rabit, Sequence: synthesized peptide derived from human c-Met around the Phosphorylation site of Tyr1234, Dilution: 1:2000, RRID number: AB_2834564, Catalogue number: AF3129, Supplier: Affinity Biosciences (Beijing, China).

hERG potassium channel = hERG potassium channel (Homo sapiens, UniProt Q12809); test: hERG potassium channel QPatch automated patch clamp in CHO cells
[6] = both sexes, plasma, iv, SD rats, 2 mg/kg
[7] = both sexes, plasma, po, SD rats, 10 mg/kg

Sequence of hERG potassium channel (Q12809 whole entry): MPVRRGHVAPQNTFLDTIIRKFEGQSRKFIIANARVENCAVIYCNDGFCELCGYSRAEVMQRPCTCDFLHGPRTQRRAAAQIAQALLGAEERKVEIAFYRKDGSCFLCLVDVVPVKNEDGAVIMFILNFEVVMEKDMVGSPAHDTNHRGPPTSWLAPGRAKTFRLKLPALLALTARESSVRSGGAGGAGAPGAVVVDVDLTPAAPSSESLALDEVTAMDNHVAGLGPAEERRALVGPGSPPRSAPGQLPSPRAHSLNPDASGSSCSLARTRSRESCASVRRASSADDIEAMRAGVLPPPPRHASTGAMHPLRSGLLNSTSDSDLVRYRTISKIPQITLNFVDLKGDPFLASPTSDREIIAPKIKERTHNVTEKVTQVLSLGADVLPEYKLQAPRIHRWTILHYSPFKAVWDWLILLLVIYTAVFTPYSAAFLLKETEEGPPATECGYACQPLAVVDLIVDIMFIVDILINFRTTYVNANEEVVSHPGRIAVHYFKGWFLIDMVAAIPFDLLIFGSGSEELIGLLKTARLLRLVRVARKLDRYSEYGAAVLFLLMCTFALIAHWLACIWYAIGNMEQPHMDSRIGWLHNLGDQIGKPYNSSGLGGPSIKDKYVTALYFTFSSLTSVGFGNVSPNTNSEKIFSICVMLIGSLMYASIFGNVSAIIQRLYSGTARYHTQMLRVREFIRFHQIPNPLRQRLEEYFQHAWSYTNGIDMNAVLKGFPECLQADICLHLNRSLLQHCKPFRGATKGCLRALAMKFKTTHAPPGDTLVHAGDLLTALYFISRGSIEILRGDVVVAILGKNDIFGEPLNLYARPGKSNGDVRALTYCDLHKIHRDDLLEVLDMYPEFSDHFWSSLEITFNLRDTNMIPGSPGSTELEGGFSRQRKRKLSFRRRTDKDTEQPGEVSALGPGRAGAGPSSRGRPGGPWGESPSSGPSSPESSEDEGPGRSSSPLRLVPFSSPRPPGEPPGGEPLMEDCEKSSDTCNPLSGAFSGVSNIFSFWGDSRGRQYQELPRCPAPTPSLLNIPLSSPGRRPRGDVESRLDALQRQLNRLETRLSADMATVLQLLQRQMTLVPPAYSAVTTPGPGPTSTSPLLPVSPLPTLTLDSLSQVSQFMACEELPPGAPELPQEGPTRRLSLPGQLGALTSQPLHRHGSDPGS
T2 sequence (P08581 25-1390): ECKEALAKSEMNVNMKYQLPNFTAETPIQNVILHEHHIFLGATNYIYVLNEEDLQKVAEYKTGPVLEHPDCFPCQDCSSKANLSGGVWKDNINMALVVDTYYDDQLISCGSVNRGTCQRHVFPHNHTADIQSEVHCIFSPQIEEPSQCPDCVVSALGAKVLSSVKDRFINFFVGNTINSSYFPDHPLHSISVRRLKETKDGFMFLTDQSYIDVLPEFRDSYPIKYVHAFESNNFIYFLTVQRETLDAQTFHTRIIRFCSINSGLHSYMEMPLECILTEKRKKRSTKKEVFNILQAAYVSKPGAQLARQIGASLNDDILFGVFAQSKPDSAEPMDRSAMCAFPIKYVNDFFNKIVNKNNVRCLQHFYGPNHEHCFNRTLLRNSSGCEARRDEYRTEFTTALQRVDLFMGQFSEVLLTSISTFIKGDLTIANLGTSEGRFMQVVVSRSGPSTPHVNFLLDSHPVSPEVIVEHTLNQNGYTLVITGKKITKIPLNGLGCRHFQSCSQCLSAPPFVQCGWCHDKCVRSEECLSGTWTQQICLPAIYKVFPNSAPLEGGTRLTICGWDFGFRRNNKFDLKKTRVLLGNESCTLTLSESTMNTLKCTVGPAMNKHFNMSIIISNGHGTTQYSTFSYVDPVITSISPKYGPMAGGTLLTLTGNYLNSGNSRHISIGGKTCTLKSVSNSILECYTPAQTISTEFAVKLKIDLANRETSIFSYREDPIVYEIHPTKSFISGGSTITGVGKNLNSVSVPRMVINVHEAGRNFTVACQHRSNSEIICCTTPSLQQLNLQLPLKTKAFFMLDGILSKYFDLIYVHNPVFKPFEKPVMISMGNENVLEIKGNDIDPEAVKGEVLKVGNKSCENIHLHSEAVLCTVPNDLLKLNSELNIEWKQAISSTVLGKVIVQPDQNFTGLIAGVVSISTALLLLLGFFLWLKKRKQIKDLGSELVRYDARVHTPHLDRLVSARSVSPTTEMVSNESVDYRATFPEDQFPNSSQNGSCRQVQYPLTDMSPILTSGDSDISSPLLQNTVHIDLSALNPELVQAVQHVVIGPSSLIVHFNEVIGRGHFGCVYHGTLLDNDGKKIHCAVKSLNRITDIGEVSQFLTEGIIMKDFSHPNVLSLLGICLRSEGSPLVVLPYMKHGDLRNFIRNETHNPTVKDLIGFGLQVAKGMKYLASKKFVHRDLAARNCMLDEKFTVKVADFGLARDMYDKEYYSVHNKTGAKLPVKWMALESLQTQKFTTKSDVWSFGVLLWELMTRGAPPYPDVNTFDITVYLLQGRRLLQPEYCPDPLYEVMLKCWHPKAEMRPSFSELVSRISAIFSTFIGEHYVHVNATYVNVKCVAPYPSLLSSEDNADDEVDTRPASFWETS

Cc1c(C(=O)Nc2ccc(Oc3ccnc(Nc4cccc(OC5CCN(C)CC5)c4)n3)cc2)c(=O)n(-c2ccccc2)n1C [compound 17c, 1,5-dimethyl-N-(4-((2-((3-((1-methylpiperidin-4-yl)oxy)phenyl)amino)pyrimidin-4-yl)oxy)phenyl)-3-oxo-2-phenyl-2,3-dihydro-1H-pyrazole-4-carboxamide]
IC50 (Mer kinase): 6.4 ± 1.8 nM
IC50 (c-Met kinase): 26.1 ± 7.7 nM
CL (intrinsic clearance) ([1]; human liver microsomes): 23.6 µL/min/mg
microsomal CLint ([1]; human, liver microsomes, pH 7.4, human liver microsomes, read-out: CL (intrinsic clearance)): 26 µL/min/mg
fold enhancement compared to cabozantinib (CAKI-1 renal cancer; CAKI-1 cells): 2.0 fold
IC50 (CAKI-1 renal cancer; Homo sapiens, CAKI-1, CCK-8, read-out: IC50 CAKI-1 cells): 2310 ± 670 nM
IC50 (PC-3 prostate cancer; Homo sapiens, PC-3, CCK-8, read-out: IC50 PC-3 cells): 3790 ± 1090 nM
times more effective than cabozantinib (PC-3 prostate cancer; PC-3 cells): 4.1 times
Stability (%) ([2]; human plasma, 1 μM, 6 h at 37 °C): 99.3%
fraction unbound at 6 h, 1 μM ([2]; human plasma, 1 μM, fraction, read-out: Mean Fu): 0.0158
fraction unbound at 6 h, 1 μM ([2]; human plasma, 1 μM, read-out: Mean Fb (PPB) (converted)): 0.016
plasma protein-binding affinity ([2]; species not stated (abstract)): > 95%
Mean Fb ([3]; 1 μM): 98.2%
Stability (%) ([3]; 1 μM, 6 h at 37 °C): 102.2%
fraction unbound at 6 h, 1 μM ([3]; fraction, read-out: Mean Fu): 0.0178
AUC(0-t) [4, 6]: 2150 ng·h/mL
half-life [4, 6]: 3.33 h
clearance ([4]; both sexes, plasma, iv, SD rats, i.v., 2 mg/kg, read-out: CL_obs): 16.4 mL/min/kg
MRT inf ([4]; both sexes, plasma, iv, SD rats, i.v., 2 mg/kg): 3.23 h
bioavailability ([4]; both sexes, plasma, oral, SD rats, p.o. 10 mg/kg vs i.v. 2 mg/kg, read-out: F (oral bioavailability)): 45.3%
AUC(0-t) [4, 7]: 4630 ng·h/mL
Cmax [4, 7]: 740 ng/mL
Tmax [4, 7]: 4 h
half-life [4, 7]: 3.46 h
MRT inf ([4]; both sexes, plasma, po, SD rats, p.o., 10 mg/kg): 6.52 h
oral bioavailability, fold higher than 18c ([4]; in vivo, po): 16 fold
ED50 apoptosis (TUNEL-positive cells) (HCT116 cells): 2036 nM
inhibition of c-Met kinase phosphorylation [5]: significantly inhibited the phosphorylation
IC50 (hERG potassium channel): > 40000 nM
